How the values were obtained:
[1] = system: M-07e cells; test: M-07e cellular assay (SCF-mediated cell proliferation); type: cell-based; details: Homo sapiens, 72 hours, CellTiter Glo
Summary of the method: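 CellTiter Glo luminescence after 72 h compound exposure in SCF (EC90)-stimulated M-07e cells expressing endogenous human c-KIT.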

[2] = target: Recombinant human c-KIT kinase (Homo sapiens (Human), UniProt P10721); test: c-KIT kinase chemiluminescence assay (ADP-Glo); type: biochemical; details: ATP 50 μM
Chain of Recombinant human c-KIT kinase (P10721 26-976): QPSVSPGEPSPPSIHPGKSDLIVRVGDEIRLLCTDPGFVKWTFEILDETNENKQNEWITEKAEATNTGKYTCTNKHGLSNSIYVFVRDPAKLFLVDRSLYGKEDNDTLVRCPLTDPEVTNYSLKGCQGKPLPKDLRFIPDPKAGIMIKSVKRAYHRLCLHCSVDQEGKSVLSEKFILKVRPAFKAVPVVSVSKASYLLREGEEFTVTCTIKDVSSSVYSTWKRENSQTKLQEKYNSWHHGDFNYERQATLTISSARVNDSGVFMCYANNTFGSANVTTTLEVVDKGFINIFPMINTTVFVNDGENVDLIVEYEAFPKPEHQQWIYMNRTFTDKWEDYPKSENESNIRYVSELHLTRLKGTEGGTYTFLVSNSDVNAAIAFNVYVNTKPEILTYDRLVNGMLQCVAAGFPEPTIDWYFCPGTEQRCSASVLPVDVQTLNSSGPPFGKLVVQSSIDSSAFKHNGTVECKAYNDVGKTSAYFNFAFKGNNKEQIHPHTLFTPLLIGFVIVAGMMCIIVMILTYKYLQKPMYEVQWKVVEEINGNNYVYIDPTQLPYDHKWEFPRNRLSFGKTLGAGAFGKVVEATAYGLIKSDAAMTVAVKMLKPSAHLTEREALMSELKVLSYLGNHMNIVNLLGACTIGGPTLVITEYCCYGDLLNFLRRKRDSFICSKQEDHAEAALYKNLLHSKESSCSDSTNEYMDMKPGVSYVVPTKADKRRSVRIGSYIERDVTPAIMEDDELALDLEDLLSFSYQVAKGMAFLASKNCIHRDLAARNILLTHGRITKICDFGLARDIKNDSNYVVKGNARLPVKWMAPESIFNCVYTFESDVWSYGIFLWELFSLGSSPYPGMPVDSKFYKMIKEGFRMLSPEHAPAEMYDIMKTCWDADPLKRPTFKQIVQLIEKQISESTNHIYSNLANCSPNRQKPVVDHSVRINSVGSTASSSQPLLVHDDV
Summary of the method: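 Recombinant human c-KIT preincubated 30 min at RT in 40 mM Tris pH 7.5, 20 mM MgCl2, 0.1 mg/mL BSA, 50 μM DTT, then reacted 2 h at RT with ATP and polyEY substrate. ADP-Glo luminescence readout; activity normalized to high/low controls, IC50 and Hill coefficient from inhibitor-versus-normalized-response fit.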

SMILES | EC50 [1] [nM] | IC50 [2] [nM]
Cc1ccc(-c2noc([C@H]3C[C@@H]3F)n2)cc1NC(=O)c1cnc(-c2ccc3nc[nH]c3c2)o1 [Example 308-39] | 100 to 1000 | 100 to 1000
Cc1nc2cc(-c3ncc(C(=O)Nc4cc(-c5noc([C@H]6C[C@@H]6F)n5)ccc4C)o3)ccc2[nH]1 [Example 308-40] | < 100 | < 100
Cc1ccc(-c2noc([C@H]3C[C@@H]3F)n2)cc1NC(=O)c1cnc(-c2cccc3cc[nH]c23)o1 [Example 308-41] | > 1000 | 100 to 1000
Cc1ccc(-c2noc([C@H]3C[C@@H]3F)n2)cc1NC(=O)c1cnc(-c2ccc(F)c3[nH]ccc23)o1 [Example 308-42] | 100 to 1000 | 100 to 1000
Cc1ccc(-c2noc([C@H]3C[C@@H]3F)n2)cc1NC(=O)c1cnc(-c2cccc3[nH]ncc23)o1 [Example 308-43] | 100 to 1000 | < 100
Cc1ccc(-c2noc([C@H]3C[C@@H]3F)n2)cc1NC(=O)c1cnc(-c2ccc(F)c3[nH]ncc23)o1 [Example 308-44] | 100 to 1000 | 100 to 1000
Cc1ccc(-c2noc([C@H]3C[C@@H]3F)n2)cc1NC(=O)c1cnc(-c2ccc3nnn(C)c3c2)o1 [Example 308-46] | 100 to 1000 | 100 to 1000
Cc1ccc(-c2noc([C@H]3C[C@@H]3F)n2)cc1NC(=O)c1cnc(-c2ccc(NC(N)=O)cc2)o1 [Example 308-47] | 100 to 1000 | 100 to 1000
COC(=O)Nc1ccc(-c2ncc(C(=O)Nc3cc(-c4noc([C@H]5C[C@@H]5F)n4)ccc3C)o2)cc1 [Example 308-48] | 100 to 1000 | 100 to 1000
Cc1ccc(-c2noc([C@H]3C[C@@H]3F)n2)cc1NC(=O)c1cnc(-c2ccc3c(c2)NC(=O)CO3)o1 [Example 308-52] | 100 to 1000 | 100 to 1000
Cc1ccc(-c2noc([C@H]3C[C@@H]3F)n2)cc1NC(=O)c1cnc(-c2ccc3c(c2)O[C@@H](C)CN3)o1 [Example 308-53] | 100 to 1000 | 100 to 1000
Cc1ccc(-c2noc([C@H]3C[C@@H]3F)n2)cc1NC(=O)c1cnc(-c2ccc3c(c2)O[C@H](C)CN3)o1 [Example 308-54] | 100 to 1000 | 100 to 1000
Cc1ccc(-c2noc([C@H]3C[C@@H]3F)n2)cc1NC(=O)c1cnc(-c2ccc3c(c2)CC(=O)N3C)o1 [Example 308-55] | 100 to 1000 | 100 to 1000
Cc1ccc(-c2noc([C@H]3C[C@@H]3F)n2)cc1NC(=O)c1cnc(-c2ccc3[nH]c4c(c3c2)CCN(C(=O)OC(C)(C)C)C4)o1 [Example 308-56] | 100 to 1000 | 100 to 1000
Cc1ccc(-c2noc([C@H]3C[C@@H]3F)n2)cc1NC(=O)c1cnc(-c2ccc3[nH]c4c(c3c2)CCNC4)o1 [Example 308-57] | 100 to 1000 | < 100
COC(=O)N1CC(c2nc(-c3ccc(C)c(NC(=O)c4cnc(-c5ccc6c(c5)CC(=O)N6)o4)c3)no2)C1 [Example 308-58] | 100 to 1000 | < 100
COC(=O)N1CC(c2nc(-c3cc(NC(=O)c4cnc(-c5ccc6c(c5)CC(=O)N6)o4)c(C)cc3F)no2)C1 [Example 308-59] | 100 to 1000 | 100 to 1000
Cc1ccc(-c2noc(C3CN(C(=O)OCc4ccccc4)C3)n2)cc1NC(=O)c1cnc(-c2ccc3c(c2)CC(=O)N3)o1 [Example 308-60] | > 1000 | > 1000
Cc1ccc(-c2noc([C@H]3C[C@@H]3F)n2)cc1NC(=O)c1cnc(-c2ccc3c(c2)C(C)C(=O)N3)o1 (stereo partly shown) [Example 308-61] | 100 to 1000 | 100 to 1000
Cc1ccc(-c2noc(C3CN(C(=O)OC(C)C)C3)n2)cc1NC(=O)c1cnc(-c2ccc3c(c2)CC(=O)N3)o1 [Example 308-62] | > 1000 | 100 to 1000
Cc1ccc(-c2noc(C3CN(C(=O)OC4CC4)C3)n2)cc1NC(=O)c1cnc(-c2ccc3c(c2)CC(=O)N3)o1 [Example 308-63] | 100 to 1000 | 100 to 1000
Cc1ccc(-c2noc([C@H]3C[C@@H]3F)n2)cc1NC(=O)c1cnc(-c2ccc(C(C)(C)O)s2)o1 [Example 308] | > 1000 | > 1000
Cc1ncc(-c2nnnn2C)cc1NC(=O)c1cnn2ccc(N3CC4(C3)CC(O)(C(F)F)C4)cc12 [Example 312-1] | > 1000 | > 1000
Cc1ncc(-c2nnn(C)n2)cc1NC(=O)c1cnn2ccc(N3CC4(C3)CC(O)(C(F)F)C4)cc12 [Example 312-2] | < 100 | 100 to 1000
[2H]C([2H])([2H])n1nnnc1-c1cnc(C)c(NC(=O)c2cnn3ccc(N4CC5(C4)CC(O)(C(F)F)C5)cc23)c1 [Example 312-3] | > 1000 | > 1000
[2H]C([2H])([2H])n1nnc(-c2cnc(C)c(NC(=O)c3cnn4ccc(N5CC6(C5)CC(O)(C(F)F)C6)cc34)c2)n1 [Example 312-4] | < 100 | 100 to 1000
Cc1ncc(-c2nnn(CC(F)(F)F)n2)cc1NC(=O)c1cnn2ccc(N3CC4(C3)CC(O)(C(F)F)C4)cc12 [Example 312-5] | < 100 | > 1000

SMILES | EC50 [1] [nM] | IC50 [2] [nM]
Cc1ncc(-c2nnn(C(C)C)n2)cc1NC(=O)c1cnn2ccc(N3CC4(C3)CC(O)(C(F)F)C4)cc12 [Example 312-6] | < 100 | > 1000
Cc1ncc(-c2nnn(CC3CC3)n2)cc1NC(=O)c1cnn2ccc(N3CC4(C3)CC(O)(C(F)F)C4)cc12 [Example 312-7] | < 100 | 100 to 1000
Cc1ncc(-c2nnn(C3CNC3)n2)cc1NC(=O)c1cnn2ccc(N3CC4(C3)CC(O)(C(F)F)C4)cc12 [Example 312-8] | > 1000 | > 1000
Cc1ncc(-c2nnn(C3CN(C(=O)OC(C)(C)C)C3)n2)cc1NC(=O)c1cnn2ccc(N3CC4(C3)CC(O)(C(F)F)C4)cc12 [Example 312-9] | 100 to 1000 | > 1000
Cc1ncc(-c2nnn(C3CC(F)(F)C3)n2)cc1NC(=O)c1cnn2ccc(N3CC4(C3)CC(O)(C(F)F)C4)cc12 [Example 312] | < 100 | 100 to 1000
Cc1ccc(-c2ncc(OC(F)F)cn2)cc1NC(=O)c1cnn2ccc(N3CC4(C3)CC(O)(C(F)F)C4)cc12 [Example 314] | < 100 | < 100
Cc1ccc(-c2ncc(OC(F)(F)F)cn2)cc1NC(=O)c1cnn2ccc(N3CC4(C3)CC(O)(C(F)F)C4)cc12 [Example 315] | < 100 | < 100
Cc1ncc(-c2ncc(OC(F)F)cn2)cc1NC(=O)c1cnn2ccc(N3CC4(C3)CC(O)(C(F)F)C4)cc12 [Example 316] | 100 to 1000 | 100 to 1000
Cc1ncc(-c2ncc(C3CC3)cn2)cc1NC(=O)c1cnn2ccc(N3CC4(C3)CC(O)(C(F)F)C4)cc12 [Example 317] | < 100 | 100 to 1000
Cc1ccc(-c2nc3cc(F)ccn3n2)cc1NC(=O)c1cnn2ccc(N3CC4(C3)CC(O)(C(F)F)C4)cc12 [Example 318] | < 100 | < 100
Cc1ccc(-c2ncc3c(ccn3C(F)F)n2)cc1NC(=O)c1cnn2ccc(N3CC4(C3)CC(O)(C(F)F)C4)cc12 [Example 319] | < 100 | < 100
Cc1ccc(-c2ncc3cccn3n2)cc1NC(=O)c1cnn2ccc(N3CC4(C3)CC(O)(C(F)F)C4)cc12 [Example 320] | < 100 | < 100
Cc1ccc(-c2nc3n(n2)CCCC3)cc1NC(=O)c1cnn2ccc(N3CC4(C3)CC(O)(C(F)F)C4)cc12 [Example 321] | 100 to 1000 | 100 to 1000
Cc1ccc(-c2nc3n(n2)CCN(C(=O)OC(C)(C)C)C3)cc1NC(=O)c1cnn2ccc(N3CC4(C3)CC(O)(C(F)F)C4)cc12 [Example 322] | 100 to 1000 | < 100
Cc1ccc(-c2nc3n(n2)CCN(C(=O)C2CC2)C3)cc1NC(=O)c1cnn2ccc(N3CC4(C3)CC(O)(C(F)F)C4)cc12 [Example 323] | > 1000 | 100 to 1000
COC(=O)N1CCn2nc(-c3ccc(C)c(NC(=O)c4cnn5ccc(N6CC7(C6)CC(O)(C(F)F)C7)cc45)c3)nc2C1 [Example 324] | 100 to 1000 | 100 to 1000
Cc1ncc(-c2ncc(C(C)C)cn2)cc1NC(=O)c1cnn2ccc(N3CC4(C3)CC(O)(C(F)F)C4)cc12 [Example 326] | < 100 | < 100
Cc1ncc(-c2ncc(C(F)F)cn2)cc1NC(=O)c1cnn2ccc(N3CC4(C3)CC(O)(C(F)F)C4)cc12 [Example 327] | 100 to 1000 | 100 to 1000
Cc1ncc(-c2ncc(C(F)(F)F)cn2)cc1NC(=O)c1cnn2ccc(N3CC4(C3)CC(O)(C(F)F)C4)cc12 [Example 328] | < 100 | 100 to 1000
Cc1ccc(-c2cnc(OC(F)F)nc2)cc1NC(=O)c1cnn2ccc(N3CC4(COC4)C3)cc12 [Example 329] | 100 to 1000 | < 100
Cc1ncc(-c2ccc(OC(F)F)nc2)cc1NC(=O)c1cnn2ccc(N3CC4(COC4)C3)cc12 [Example 330] | < 100 | 100 to 1000
Cc1ncc(-c2ccc(OC(F)F)cn2)cc1NC(=O)c1cnn2ccc(N3CC4(C3)CC(O)(C(F)F)C4)cc12 [Example 331] | < 100 | 100 to 1000
Cc1ncc(-c2ccc(OC(F)(F)F)cn2)cc1NC(=O)c1cnn2ccc(N3CC4(COC4)C3)cc12 [Example 332] | < 100 | 100 to 1000
Cc1ncc(-c2ccc(OC(F)(F)F)cn2)cc1NC(=O)c1cnn2ccc(N3CC4(C3)CC(O)(C(F)F)C4)cc12 [Example 333] | < 100 | < 100
Cc1ccc(-c2nccc(C3CC3)n2)cc1NC(=O)c1cnn2ccc(N3CC4(COC4)C3)cc12 [Example 334] | < 100 | 100 to 1000
Cc1ccc(-c2ncc(C3CC3)cn2)cc1NC(=O)c1cnn2ccc(N3CC4(COC4)C3)cc12 [Example 335] | < 100 | < 100

Source: patent US20250059174A1, “Pharmaceutical Compounds and Compositions as C-Kit Kinase Inhibitors” (Enanta Pharmaceuticals, Inc., priority 2023, published 2025)
